Read-outs that look alike come from different tables or passages of the source.

From patent publication US20260176260A1, “DUAL RAF AND TUBULIN INHIBITORS AND METHODS OF USE THEREOF” (Deciphera Pharmaceuticals, LLC, priority 2023, published 2026) come the findings set out here.

This assay has as its system MiaPaca-2 cells. Kind of assay: MiaPaca-2 cell proliferation assay (resazurin). Format: cell-based. Conditions: read-out: MiaPaca-2. For orientation: Resazurin is reduced to fluorescent resorufin, in cell work by metabolically active cells.
[1] abbreviates: Homo sapiens, MIA PaCa-2, Table 2, inhibition of cell proliferation.

On to `CNC(=O)c1cc(-c2cc(-c3cc(NC(=O)c4cc(C5CC5)cnn4)ccc3C)cc(NCCO)n2)ccn1` [Example 27], for which the IC50 reads like this: under setting [1], 0.1 to 0.5 µM; (Table 3) 0.1 to 0.5 µM.

Take `CNC(=O)c1cc(-c2cc(-c3cc(NC(=O)c4cc(C5CC5)cnn4)ccc3C)ccn2)ccn1` [Example 26]: the IC50 reads like this: under setting [1], 0.1 to 0.5 µM; (Table 3) 0.1 to 0.5 µM.

Regarding `CNC(=O)c1cc(-c2cc(-c3cc(NC(=O)c4cc(C(F)(F)F)cnn4)ccc3C)cc(C)n2)ccn1` [Example 2, N,6-dimethyl-4-(2-methyl-5-(5-(trifluoromethyl)pyridazine-3-carboxamido)phenyl)-[2,4′-bipyridine]-2′-carboxamide], the IC50 is, setting by setting: under setting [1], 0.1 to 0.5 µM; (Table 3) 0.1 to 0.5 µM.

With `CNC(=O)c1cc(-c2cc(-c3cc(NC(=O)c4cc(C(F)(F)F)cnn4)ccc3C)cc(NCCO)n2)ccn1` [Example 18], the IC50 runs as follows: under setting [1], under 0.1 µM; (Table 3) under 0.1 µM.

With `CNC(=O)c1cc(-c2cc(-c3cc(NC(=O)c4cc(C(F)(F)F)cnn4)ccc3C)ccn2)ccn1` [Example 9], the IC50 by setting is: under setting [1], 0.1 to 0.5 µM; (Table 3) 0.1 to 0.5 µM.
